Laboratory results taken from patent US11771717B2, “Applications of pair-production for improved radiotherapy” (Henry Ford Health System, priority 2017, dated 2023).
Where two headings read alike, the source gives them in different places.

Tested on: A549 human lung cancer cells
Conditions: for more cell killing at 18 MV vs 6 MV: Example 3 conclusion; for increased cell killing at 18 MV compared to 6 MV, on average: cisplatin 4 μg/ml, carboplatin 12 μg/ml (FIG. 4); for cell survival decreased using 18 MV photons compared to 6 MV photons, average of 3 experiments: FIG. 2 and FIG. 4, 2 hours before irradiation with 2 Gy, 100 μM sodium phosphotungstate, 4 μg/ml cisplatin, 12 μg/ml carboplatin; for decreased clonogenic survival at 18 MV compared to 6 MV: Example 2 conclusion
Procedure: Detailed Methods: The human lung cancer cell line A549 was maintained in tissue culture using standard techniques. A 70% confluent T25 tissue culture flask of A549 in exponential growth phase was trypsinized with 2 mL of 0.05% trypsin solution and deactivated with 3 mL DMEM to produce a 5 mL single cell-suspension. One milliliter of this cell solution was added to 10 mL of DMEM and vortexed to produce a homogenous diluted single cell suspension. Seven 6-well tissue culture plates were prepared with 3 mL of DMEM per well. […] These plates were incubated at 37° C. for 24 hours to allow the cells to settle and the tissue culture wells. The media was then removed from each plate and replaced with: DMEM in 3 plates as non-metal controls (250 cells per well), 100 μM sodium phosphotungstate hydrate DMEM in 2 plates (250 cells per well), 1 mM sodium tungstate dihydrate DMEM in 2 plates (250 cells per well), and 4 μg/mL cisplatin DMEM in 2 plates (1000 cells per well). The media with or without metal compounds was left in the wells to incubate for 1-2 hours prior to irradiation. Six plates were irradiated using a linear accelerator (Varian Trilogy; Varian Corp., Palo Alto, Calif.): one plate each of the DMEM, sodium phosphotungstate hydrate, sodium tungstate dihydrate, and cisplatin were given 209 MU of 6 MV X-rays (2 Gy) and the remaining plates of DMEM, sodium phosphotungstate hydrate, sodium tungstate dihydrate, and cisplatin were irradiated with 239 MU of 18 MV X-rays (2 Gy). The remaining seventh plate was not irradiated and used to calculate plating efficiency of A549. The seven plates then had all media replaced with normal DMEM immediately following irradiation and were incubated for 10 days. When A549 colonies were seen to be equal to or greater than 50 cells by microscopy, the seven plates were stained with crystal violet and counted. The same experiment above was conducted for A549 cells in DMEM media alone with administration of sodium phosphotungstate hydrate after irradiation. Two identical plates were prepared as described above and these were irradiated at 6 or 18 MV in DMEM. The media was removed after irradiation and replaced with 100 μM sodium phosphotungstate hydrate media for one hour before again being replaced with DMEM and incubated for 10 days.
A549 lung cancer cells were used to create nine 6-well plates under standard methods. The media was then removed from each plate and replaced with: DMEM in 3 plates as non-metal controls (250 cells per well), 100 μM sodium phosphotungstate hydrate DMEM in 2 plates (250 cells per well), 12 μg/ml carboplatin DMEM in 2 plates (1000 cells per well), and 4 μg/ml cisplatin DMEM in 2 plates (1000 cells per well) and incubated for 2-4 hours prior to irradiation. Eight plates were irradiated on a linear accelerator: one plate each of the DMEM, tungsten, carboplatin, and cisplatin was given 2 Gy of 6 MV X-rays and one of each was irradiated with 2 Gy of 18 MV X-rays. The remaining plate was not irradiated and used to calculate plating efficiency of A549. The nine plates were incubated for 10 days, stained with crystal violet, and colonies were counted.
In vitro studies were conducted with the A549 cell line, a human lung adenocarcinoma cultured from the tumor of a person by Giard in 1972. Clonogenic survival studies were done without irradiation or metal compound to measure plating efficiency. Cells were then exposed to 100 μM tungsten compound for 4 hours and seeded into 6 well plates. […] 4 identical plates of cells were then created, 2 containing 100 μM tungsten metal and 2 without metal.

[1] = Example 3, 2 Gy of 6 MV X-rays, incubated 2-4 hours prior to irradiation (100 μM tungsten, 4 μg/ml cisplatin, 12 μg/ml carboplatin)
[2] = Example 3, 2 Gy of 18 MV X-rays, incubated 2-4 hours prior to irradiation (100 μM tungsten, 4 μg/ml cisplatin, 12 μg/ml carboplatin)
[3] = Example 2, 2 Gy of 6 MV X-rays, compound in media 1-2 hours prior to irradiation (100 μM sodium phosphotungstate hydrate, 1 mM sodium tungstate dihydrate, 4 μg/mL cisplatin)
[4] = Example 2, 2 Gy of 18 MV X-rays, compound in media 1-2 hours prior to irradiation (100 μM sodium phosphotungstate hydrate, 1 mM sodium tungstate dihydrate, 4 μg/mL cisplatin)

N.N.O=C([O-])C1(C(=O)[O-])CCC1.[Pt+2] [carboplatin, reference compound]
colonies/well [1]: 64 colonies/well | survival [1]: 16% | colonies/well [2]: 40 colonies/well | survival [2]: 10% | more cell killing at 18 MV vs 6 MV (2 Gy): 37% | increased cell killing at 18 MV compared to 6 MV, on average (Example 4): approximately 37% | cell survival decreased using 18 MV photons compared to 6 MV photons, average of 3 experiments: approximately 37%

sodium phosphotungstate hydrate
survival after drug administration without irradiation (100 μM for 4 hours, no irradiation): greater than 95% | cell killing, plates exposed to tungsten after irradiation (Example 2, 100 μM for one hour after irradiation, at either 6 or 18 MV): approximately 65% | average colonies [3]: 68 colonies | survival [3]: 66% | average colonies [4]: 35 colonies | survival [4]: 34% | 18 MV result compared to 6 MV, in words (Example 2, 18 MV vs 6 MV, 2 Gy): double cell kill | decreased clonogenic survival at 18 MV compared to 6 MV (2 Gy): approximately 50% | colonies/well [1]: 68 colonies/well | survival [1]: 66% | colonies/well [2]: 35 colonies/well | survival [2]: 34% | more cell killing at 18 MV vs 6 MV (2 Gy): approximately 50% | more cell killing compared to 6 MV with or without metal and 18 MV without metal (Example 4, 100 μM, 2 Gy of 18 MV photons): approximately 50% | cell survival decreased using 18 MV photons compared to 6 MV photons, average of 3 experiments: 48%

N.N.[Cl][Pt][Cl] [cisplatin, reference compound]
average colonies [3]: 54 colonies | survival [3]: 13% | average colonies [4]: 29 colonies | survival [4]: 7% | 18 MV result compared to 6 MV, in words (Example 2, 18 MV vs 6 MV, 2 Gy): half of that at 6 MV | decreased clonogenic survival at 18 MV compared to 6 MV (2 Gy): approximately 50% | colonies/well [1]: 54 colonies/well | survival [1]: 13% | colonies/well [2]: 29 colonies/well | survival [2]: 7% | more cell killing at 18 MV vs 6 MV (2 Gy): 37% | increased cell killing at 18 MV compared to 6 MV, on average (Example 4): approximately 37% | cell survival decreased using 18 MV photons compared to 6 MV photons, average of 3 experiments: approximately 37%

O.O.[Na+].[Na+].[O]=[W](=[O])([O-])[O-] [sodium tungstate dihydrate]
average colonies [3]: 70 colonies | survival [3]: 68% | average colonies [4]: 21 colonies | survival [4]: 20% | more cell killing compared to 6 MV (Example 2, 18 MV vs 6 MV, 2 Gy, 1 mM): approximately 70% | decreased clonogenic survival at 18 MV compared to 6 MV (2 Gy): ~70%
